For one data set, the system named is urine CTX-I. The data set is described as follows: Monkey urine CTX-I, multiple doses. In kind it is in vivo, cynomolgus monkeys (Macaca fascicularis). The procedure: (§1) Biomarkers such as NTX-I (bone resorption) and CTX-II (cartilage degradation) are typically measured in urine. Additional experiments in which urine was collected were therefore performed. In these experiments, four cynomolgus monkeys (Macaca fascicularis) were used (Aptuit, Edinburgh, UK). The animals were healthy young females weighing 3.5–4 kg. Animals were dosed with vehicle or MIV-711 via oral gavage at a dose volume of 5 mL/kg between 7:30 and 8:30 a.m. Animals first received vehicle via oral gavage for five consecutive days. After a washout period, the animals then received MIV-711 (30 µmol/kg) via oral gavage for five consecutive days.
(§2) Urine was collected between 8–12 a.m., 12 a.m.–4 p.m. and 4 p.m.–8 a.m. on Day 1 and Day 5 of respective treatment. Biomarkers were measured in each urine sample, corrected for creatinine, and the mean value of the three samples on Day 1 and Day 5 was calculated. The effect of MIV-711 was evaluated by comparing biomarkers in urine samples collected on Day 1 and Day 5 with respective vehicle sample. [drawing 3]
(§3) The quantification of CTX-I in monkey plasma samples and human serum samples was performed using a commercially available kit (Serum CrossLaps ELISA, IDS Nordic, Herlev, Denmark). The levels of CTX-I in monkey urine samples were measured using a commercially available kit (Urine BETA CrossLaps ELISA, IDS Nordic). […]

A short description of a further data set: pKa. In kind it is physicochemical.
The target of a further data set is T1, human cathepsin B (Homo sapiens, UniProt P07858).
T1 construct: purchased Athens Research Technology
The data set is described as follows: Enzyme assay, human cathepsin B. The data set is classed as biochemical. An excerpt: (§4) Recombinant cathepsin K enzymes from all species were expressed in E. coli, purified and activated. Human cathepsin F and cathepsin S were expressed in Baculovirus, purified and activated. Purified human cathepsins B and H (Athens Research Technology), cathepsin L (Calbiochem), and cathepsin V (R & D Systems) were purchased.
(§5) H-D-Ala_Leu-Lys-AMC was used as the substrate in assays of cathepsin K from non-rodent species (human, dog, rabbit and guinea pig), and Z-Leu-Arg-AMC was used as the substrate in assays of cathepsin K from rodent species (mouse and rat). […]
(§6) Assays were carried out in white polystyrene 96-well plates in a final volume of 100 µL. […] Plates were read in a Fluoroskan Ascent (Thermo Labsystems, Helsinki, Finland) in kinetic mode, with excitation and emission filters of 390 and 460 nm, respectively. Rates were determined by linear regression of the fluorescence/time data in Excel. Rates were fitted by non-linear regression to either the competitive inhibition equation, with the substrate concentration fixed at the value in the assay and the KM fixed to the value previously determined, or the IC50 equation using GraphPad Prism (GraphPad, version 6, San Diego, USA) to obtain Ki or IC50 values, respectively.

For the next data set, the system named is urine NTX-I. The data set is described as follows: Monkey urine NTX-I, multiple doses. The data set is classed as in vivo, cynomolgus monkeys (Macaca fascicularis). The procedure: as §1, §2, §3
The next data set has as its target T2, mouse cathepsin K (Mus musculus, UniProt P55097).
T2 construct: made in house; host or cells: E. coli
The data set is described as follows: Recombinant enzyme assay, mouse cathepsin K. In kind it is biochemical. As to conditions: footnote a: IC50.
From the text: as §4, §5, §6

In another data set the target is guinea pig cathepsin K. The data set is described as follows: Recombinant enzyme assay, guinea pig cathepsin K. As to conditions: geometric mean. In kind it is biochemical.
From the text: as §4, §5, §6

The target in another data set is T3, dog cathepsin K (Canis lupus familiaris, UniProt Q3ZKN1).
T3 construct: made in house; host or cells: E. coli
The data set is described as follows: Recombinant enzyme assay, dog cathepsin K. In kind it is biochemical. As to conditions: geometric mean.
From the text: as §4, §5, §6

A further data set deals with urinary CTX-II. Conditions: cited from earlier work.
In another data set the target is T4, rat cathepsin K (Rattus norvegicus, UniProt O35186).
T4 construct: made in house; host or cells: E. coli
The data set is described as follows: Recombinant enzyme assay, rat cathepsin K. The data set is classed as biochemical. As to conditions: footnote a: IC50.
From the text: as §4, §5, §6

A further data set addresses T5, human cathepsin H (Homo sapiens, UniProt P09668).
T5 construct: purchased Athens Research Technology
The data set is described as follows: Enzyme assay, human cathepsin H. The data set is classed as biochemical.
From the text: as §4, §5, §6

The mark [1] stands for this setting: 30 µmol/kg p.o. once daily for 5 days, creatinine-corrected.
[2] abbreviates: single dose 30 µmol/kg p.o. (Day 1).

Molecules are shown by their SMILES. Like-named read-outs stand apart in the source and are kept apart here. Where only a bound is given, the exact number is not on record here.

One may read the pKa as the pH at which an ionisable group is half protonated. As a reminder, the Ki is a measure of affinity in units of concentration, obtained from inhibition or displacement. A word on the IC50: it is the concentration that inhibits the measured activity by half.

T4 sequence (O35186 115-329): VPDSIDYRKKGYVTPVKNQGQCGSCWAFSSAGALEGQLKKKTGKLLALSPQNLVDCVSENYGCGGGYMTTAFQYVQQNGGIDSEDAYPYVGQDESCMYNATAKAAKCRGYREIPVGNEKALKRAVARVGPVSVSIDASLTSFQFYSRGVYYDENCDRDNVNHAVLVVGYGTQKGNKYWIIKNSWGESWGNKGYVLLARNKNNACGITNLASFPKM
T2 sequence (P55097 115-329): as the sequence (O35186 115-329) above, with S58T, V131I, T140A, N175S, Y177H, V194A, L209M counted along it
T5 sequence (P09668 98-335): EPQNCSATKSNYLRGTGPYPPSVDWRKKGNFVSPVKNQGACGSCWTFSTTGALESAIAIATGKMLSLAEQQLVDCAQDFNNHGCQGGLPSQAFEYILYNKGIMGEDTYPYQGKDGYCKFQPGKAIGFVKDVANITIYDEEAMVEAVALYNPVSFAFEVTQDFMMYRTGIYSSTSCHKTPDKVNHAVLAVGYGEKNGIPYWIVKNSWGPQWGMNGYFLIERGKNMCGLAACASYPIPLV
T3 sequence (Q3ZKN1 116-330): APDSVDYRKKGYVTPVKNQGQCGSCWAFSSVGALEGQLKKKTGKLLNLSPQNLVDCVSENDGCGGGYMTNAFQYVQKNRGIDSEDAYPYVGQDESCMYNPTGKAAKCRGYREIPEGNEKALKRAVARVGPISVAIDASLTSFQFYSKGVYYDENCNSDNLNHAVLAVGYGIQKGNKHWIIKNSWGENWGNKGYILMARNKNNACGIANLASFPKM

In the case of `C#C[C@@H]1CN(C(=O)[C@H](CC(C)C)NC(=O)c2ccc(-c3nc(N4CCN(C)CC4)sc3F)cc2)[C@@H]2C(=O)CO[C@H]12` [MIV-711], the “Reduction of urinary CTX-I compared to vehicle” value with urine CTX-I (setting [1]) is 93%. In addition, the “Effect on urinary CTX-I compared to vehicle” value in the data set on urine CTX-I (setting [2]) is listed as “immediately reduced”. The molecule further came in with a pKa in the data set “pKa” of 7.15. Also, the inhibition constant Ki at human cathepsin B is 1.3 µM; at guinea pig cathepsin K it was 0.0098 µM; at dog cathepsin K, 0.0015 µM; on human cathepsin H it was over 10 µM. Further, in the data set on urine NTX-I (setting [1]), the “Reduction of urinary NTX-I compared to vehicle” value came to 71%. In addition, the “Effect on urinary NTX-I compared to vehicle” value with urine NTX-I (setting [2]) is given as “immediately reduced”. Besides, the IC50 worked out at 1 µM on mouse cathepsin K and 0.24 µM on rat cathepsin K. Moreover, the “Reduction of urinary CTX-II” value with urinary CTX-II (healthy subjects, 200 mg daily for 7 days) is listed as 72%; in the data set on urinary CTX-II (postmenopausal women, 100 mg once daily for 1 month), 55%.
